Experimental data as given in PMC3898417, “A peptide derived from TIMP-3 inhibits multiple angiogenic growth factor receptors and tumour growth and inflammatory arthritis in mice” (Angiogenesis, 2013).
Bridges are numbered along the chain shown (N, C = ends). Where no end group is shown, it is not given here.

Key:
HuDMEC = assay: VEGF165-induced cell proliferation (BrdU); type: cell-based, human; conditions: peptide 1 h then 0.5 nM VEGF165 24 h, up to 1 μM, n = 4
Protocol: Human dermal microvascular endothelial cells were serum-starved followed by incubating with p700 peptide for 1 h and then 0.5 nM of VEGF165 for 24 h at 37 °C. Cell proliferation was determined using a BrdU cell proliferation assay kit (Merck Chemicals Ltd, Nottingham, UK).

4T1 mammary tumour = assay: Syngeneic mammary tumour model (4T1); type: in vivo, BALB/c mice
Protocol: 10^6 4T1 cells were subcutaneously (s.c.) implanted into the right flank of 5–6 weeks old female BALB/c mice (Charles River Laboratories, Margate, UK) and grown until the tumour size reached 100–350 mm^3. The tumour sizes were measured using callipers as described previously. Once the size of the tumours reached 100–350 mm^3, mice were randomized into control and treatment groups and injected with either vehicle alone (PBS), 0.025, 0.25 or 2.5 mg/kg of p700 peptide in PBS, either directly into the tumour (i.t.) once per week for 2 doses; or intravenously (i.v.) every other day for 5 doses. At the end of the experiment, animals were culled and tumours and normal tissues, including lung and liver, excised and fixed with 10 % neutral buffered formalin for subsequent analysis, which included general histology and quantitative measurement of microvascular density (MVD) and necrosis. For MVD measurement, rabbit-anti-mouse CD31 (AbD Serotech, Kidlington, Oxford, UK) antibody was used and sections were stained according to standard immunohistological staining protocols for formalin-fixed tissue sections. Microvessel density was estimated by measuring the percentage of CD31 positive staining in the tumour sections (15 areas per tumour slide, 7 tumour slides per group) using AnalySIS^^D image analysis software (Olympus, UK). For the necrotic area inside the tumour, tumour slides were stained with H&E. Images were measured at 200× magnification, photographed (15 areas per tumour slide, 7 tumour slides per group) and analysed by AnalySIS^^D image analysis software (Olympus, UK). Normal tissues including lung and liver were stained with H&E to study tumour metastasis. Total number of metastases per mouse was determined as the number of metastatic foci on five sections for each animal (n = 7). Incidence of metastasis was calculated as the percentage of mice with one or more metastatic nodules in the tissues. Metastasis severity was scored as follows: […], minimal (score 1 = ≤ 4 metastatic nodules), medium (score 2 = 5–7 metastatic nodules) or extensive involvement (score 3 = ≥ 8 metastatic nodules). Each nodule contained ≥5 nuclei.

VEGFR-3 = assay: Phosphorylation RTK sandwich ELISA; type: cell-based, human; conditions: HuDMEC, peptide 1 h, ligand 5 min, n = 3
Protocol: (§1) Serum-deprived HuDMEC were pre-treated with test peptides for 1 h and then stimulated with growth factors (0.5 nM VEGF165, 1.6 nM bFGF, 1 nM PDGF-BB, 1.6 nM hepatocyte growth factor, 100 ng/ml EGF or 100 ng/ml insulin-like growth factor I) for 5 min. Cells were then lysed and phosphorylated proteins detected using (a) a receptor tyrosine kinase array (Human Phospho-Receptor Tyrosine Kinase Array Kit, R&D Systems Ltd.) or (b) sandwich ELISA (Duo-sets, R&D Systems Ltd.) according to the manufacturer’s instructions.

VEGFR-2 = assay: Phosphorylation RTK sandwich ELISA; type: cell-based, human; conditions: HuDMEC, peptide 1 h, ligand 5 min, n = 3
Protocol: as §1

PDGFR-α = assay: Phosphorylation RTK sandwich ELISA; type: cell-based, human; conditions: HuDMEC, peptide 1 h, ligand 5 min, n = 3
Protocol: as §1

VEGFR-1 = assay: Phosphorylation RTK sandwich ELISA; type: cell-based, human; conditions: HuDMEC, peptide 1 h, ligand 5 min, n = 3
Protocol: as §1

FGFR-2α = assay: Phosphorylation RTK sandwich ELISA; type: cell-based, human; conditions: HuDMEC, peptide 1 h, ligand 5 min, n = 3
Protocol: as §1

[1] = system: insulin-like growth factor 1 receptor; assay: Phosphorylation RTK sandwich ELISA; type: cell-based, human; conditions: HuDMEC, peptide 1 h, 100 ng/ml insulin-like growth factor I 5 min
Protocol: as §1

FGFR-1 = assay: Phosphorylation RTK sandwich ELISA; type: cell-based, human; conditions: HuDMEC, peptide 1 h, ligand 5 min, n = 3
Protocol: as §1

FGFR-4 = assay: Phosphorylation RTK sandwich ELISA; type: cell-based, human; conditions: HuDMEC, peptide 1 h, ligand 5 min, n = 3
Protocol: as §1

HGFR = assay: Phosphorylation RTK sandwich ELISA; type: cell-based, human; conditions: HuDMEC, peptide 1 h, 1.6 nM hepatocyte growth factor 5 min
Protocol: as §1

FGFR-3 = assay: Phosphorylation RTK sandwich ELISA; type: cell-based, human; conditions: HuDMEC, peptide 1 h, ligand 5 min, n = 3
Protocol: as §1

[2] = system: recombinant human VEGFR-2; assay: Solid phase binding assay: competition with biotinylated-VEGF165; conditions: plate-coated rhVEGFR-2-Fc; biotinylated-VEGF165 2.4 nM, 1 h room temperature; Fig. 1
Protocol: Ninety six-well plates were coated with the extracellular domain of recombinant human VEGFR-2 fused to the Fc domain of human IgG1 (rhVEGFR-2, R&D Systems, UK) by overnight incubation followed by blocking in 5 % bovine serum albumin/PBS. […] After washing, the biotinylated-VEGF165 was detected with avidin-horse-radish peroxidase and OPD substrate (Sigma-Aldrich, UK) followed by spectrophotometry.

EGFR = assay: Phospho-receptor tyrosine kinase array; type: cell-based, human; conditions: HuDMEC, 100 ng/ml EGF 5 min, phospho-RTK array, preliminary screen, data not shown
Protocol: as §1

[3] = system: collagen-induced arthritis; assay: Collagen-induced-arthritis mouse (CIA) model; type: in vivo, DBA-1 mice; conditions: 2.5 mg/kg i.v. every 2 days
[4] = system: primary human synovial cells (SC); assay: In vitro synovial cell invasion assay (GFR-Matrigel); type: cell-based; conditions: rheumatoid arthritis synovial cells, peptide 1 h, 100 ng/ml PDGF-BB 22 h; n = 3
Protocol: Synovial cell invasion was determined using a GFR-Matrigel™ invasion assay kit (BD Biosciences, USA). Serum-starved SC were treated with peptide for 1 h, followed by stimulation with 100 ng/ml PDGF-BB at 37 °C for 22 h. After incubation, non-invading cells on the upper side of the chamber were removed and the invaded cells on the lower side of the membrane were fixed with methanol and stained with Hema Gurr® rapid staining solution (Merck Chemicals, Ltd.). Cells were counted using a light microscope at 160× magnification in 3 random fields per well of 3 separate wells.

“KIKSCYYLPCFVTSKN (disulfide 5-10 (inferred)) [p700]” was tested, and the “maximum inhibition of VEGF165-induced cell proliferation” value (HuDMEC) was 40%, the increased tumour necrosis (4T1 mammary tumour; H&E sections, treated group vs control) was “failed to reach significance” and the “reduction in microvascular density (anti-CD31 staining)” value (4T1 mammary tumour; both treatment groups (i.t. and i.v.) compared to control groups, n = 7 tumours/group) was “approximately 50%”. The “effect on tumour growth, intravenous dosing” value (4T1 mammary tumour; i.v. every 2 days, 0.25 mg/kg or above, 4T1 s.c. in BALB/c mice, n = 7) was “almost totally abolished tumour growth”, the decreased metastases (4T1 mammary tumour; lung and liver H&E sections, treated group vs control) was “failed to reach significance” and the “effect on tumour growth, intra-tumour dosing” value (4T1 mammary tumour; weekly i.t. dose of 0.25 mg/kg, 4T1 s.c. in BALB/c mice, n = 7) was “almost totally abolished tumour growth”. For the same sequence, the “inhibition of VEGFR-3 phosphorylation” value (VEGFR-3) was “significant inhibition”, the “inhibition of VEGFR-2 phosphorylation” value (VEGFR-2) was “significant inhibition” and the “inhibition of PDGFR-α phosphorylation” value (PDGFR-α) was “significant inhibition”. The “inhibition of VEGFR-1 phosphorylation” value (VEGFR-1) was “significant inhibition”, the “inhibition of FGFR-2α phosphorylation” value (FGFR-2α) was “significant inhibition” and the “inhibition of insulin-like growth factor 1 receptor phosphorylation” value [1] was “no inhibition”. The “inhibition of FGFR-1 phosphorylation” value (FGFR-1) was “significant inhibition”, the “inhibition of FGFR-4 phosphorylation” value (FGFR-4) was “significant inhibition” and the “inhibition of HGFR phosphorylation” value (HGFR) was “no inhibition”. The “inhibition of FGFR-3 phosphorylation” value (FGFR-3) was “significant inhibition”, the “ability to inhibit the binding of VEGF165 to rhVEGFR-2” value [2] was “able to inhibit” and the “inhibition of EGFR” value (EGFR) was “not inhibited”. For the same sequence, the CIA progression ([3]; 7 doses, vehicle n = 8, p700 n = 10) was “significantly inhibited”, the “clinical presentation of disease (arthritis score)” value ([3]; p < 0.001 2-way ANOVA) was “reduced” and the “hind paw inflammation (hind paw volume)” value ([3]; plethysmometry, p < 0.05 2-way ANOVA, AUC NS) was “reduced”. For the same sequence, the “inhibition of PDGF-BB induced synovial cell invasion” value [4] was “approximately 40%”.
